The source of these data is ChEMBL document CHEMBL1129671, “Substituted (pyrroloamino)pyridines: potential agents for the treatment of Alzheimer's disease” (J Med Chem, 1996).

Experiment [1] has as its target T1, Adrenergic receptor alpha-2 (Rattus norvegicus, UniProt P22086+P19328+P22909).
T1 sequence (P22086 whole entry): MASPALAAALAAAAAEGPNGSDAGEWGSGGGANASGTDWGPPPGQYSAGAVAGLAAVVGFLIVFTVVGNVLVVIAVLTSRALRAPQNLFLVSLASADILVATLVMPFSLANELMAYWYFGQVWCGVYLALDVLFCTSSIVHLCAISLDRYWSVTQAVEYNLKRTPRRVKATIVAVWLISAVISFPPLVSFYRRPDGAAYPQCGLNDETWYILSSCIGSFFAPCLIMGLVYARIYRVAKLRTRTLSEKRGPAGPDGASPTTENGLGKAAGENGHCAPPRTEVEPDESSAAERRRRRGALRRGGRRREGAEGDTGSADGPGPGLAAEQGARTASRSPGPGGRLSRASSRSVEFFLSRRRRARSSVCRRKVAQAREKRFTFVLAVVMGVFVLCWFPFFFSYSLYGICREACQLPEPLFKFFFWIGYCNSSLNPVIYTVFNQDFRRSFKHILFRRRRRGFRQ
T1 sequence (P19328 whole entry): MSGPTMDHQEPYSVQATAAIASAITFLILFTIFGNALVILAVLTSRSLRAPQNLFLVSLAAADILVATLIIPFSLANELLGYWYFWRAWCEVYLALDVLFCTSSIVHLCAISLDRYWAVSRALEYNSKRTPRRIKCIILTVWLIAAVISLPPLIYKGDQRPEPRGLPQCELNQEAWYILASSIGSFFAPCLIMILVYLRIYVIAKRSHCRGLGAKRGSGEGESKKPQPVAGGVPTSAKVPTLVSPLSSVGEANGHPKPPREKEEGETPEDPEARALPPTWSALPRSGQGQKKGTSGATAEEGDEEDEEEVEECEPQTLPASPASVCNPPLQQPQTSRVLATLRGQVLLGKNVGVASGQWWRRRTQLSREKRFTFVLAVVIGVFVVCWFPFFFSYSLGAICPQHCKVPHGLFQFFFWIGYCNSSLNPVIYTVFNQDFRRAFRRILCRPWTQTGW
T1 sequence (P22909 whole entry): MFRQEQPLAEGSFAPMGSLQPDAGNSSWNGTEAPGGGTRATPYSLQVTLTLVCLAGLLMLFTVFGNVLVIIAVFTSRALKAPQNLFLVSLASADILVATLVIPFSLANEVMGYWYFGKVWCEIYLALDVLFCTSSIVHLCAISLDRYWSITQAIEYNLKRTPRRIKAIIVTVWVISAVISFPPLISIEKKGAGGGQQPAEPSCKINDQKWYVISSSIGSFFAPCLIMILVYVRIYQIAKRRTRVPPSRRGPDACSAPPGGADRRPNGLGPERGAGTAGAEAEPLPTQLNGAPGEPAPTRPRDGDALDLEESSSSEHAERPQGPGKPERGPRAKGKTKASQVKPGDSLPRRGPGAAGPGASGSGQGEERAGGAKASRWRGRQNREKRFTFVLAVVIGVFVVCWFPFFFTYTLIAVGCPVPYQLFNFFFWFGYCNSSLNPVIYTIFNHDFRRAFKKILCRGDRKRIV
Briefly: Compound was tested for inhibition of [3H]clonidine against Alpha-2 adrenergic receptor from rat cortical membranes using in vitro adrenergic receptor binding assay. The experiment is classed as cell membranes, Membrane.

Experiment [2] concerns Mus musculus. Briefly: Antagonistic activity against scopolamine-induced behavioral deficits in mice by subcutaneous administration at a concentration of 0.16 mg/kg. It counts as functional.
Experiment [3] has as its system Mus musculus. Briefly: Antagonistic activity against scopolamine-induced behavioral deficits in mice by subcutaneous administration at a concentration of 0.63 mg/kg. The experiment is classed as functional.
Experiment [4] deals with Muscarinic acetylcholine receptor. As to the kind of experiment: Inhibition of radioligand [3H]QNB binding (competitive inhibition) to muscarinic acetylcholine receptor in the rat forebrain in the absence of zinc.
Experiment [5] has as its system Mus musculus. As to the kind of experiment: Antagonistic activity against scopolamine-induced behavioral deficits in mice by subcutaneous administration at a concentration of 2.5 mg/kg. It counts as functional.
The target of experiment [6] is T1, Adrenergic receptor alpha-2. Briefly: Compound was tested for inhibition of [3H]yohimbine against Alpha-2 adrenergic receptor from rat cortical membranes using in vitro adrenergic receptor binding assay. It counts as cell membranes, Membrane.

One may read the IC50 as the concentration that inhibits the measured activity by half. Low readings indicate higher potency, high ones lower potency. Turning to `C=Cc1cccn1N(C)c1ccncc1`, the IC50 was determined as 0.21 µM in experiment [1], 8.8 µM in experiment [4] and 0.95 µM in experiment [6]. Further, the values for the Response with Mus musculus [2], with Mus musculus [3] and with Mus musculus [5] were 27%, 33% and 27%, respectively.
